Measurements taken from patent US20240034731A1, “AZA-QUINAZOLINE COMPOUNDS AND METHODS OF USE” (Iambic Therapeutics, Inc., priority 2022, published 2024).

Experiments:
CDK1/Cyclin B1 = CDK1/Cyclin B1 (Homo sapiens (Human), UniProt P06493); assay: CDK1/Cyclin B1 ADP-Glo Kinase Assay; format: biochemical; conditions: ADP-Glo, 80 uM ATP; read-out: CDK1 Cyclin B1 IC50
Experimental: CDK1/Cyclin B1 ADP-Glo Kinase Assay
(§1) The purpose of CDK1/Cyclin B1 assay is to evaluate the inhibition (% inhibition and IC50 values) of small molecule inhibitors by using a Luminescent based ADP-Glo assay. CDK1/Cyclin B1 catalyzes the production of ADP from ATP. ADP-Glo assay monitors ADP producing biochemical reactions. ADP-Glo is performed in 2 steps upon completion of kinase reaction: a combined termination of kinase reaction and depletion of remaining ATP in the first step, and conversion of generated ADP to ATP and the newly produced ATP to light output using luciferase/luciferin reaction in the second step. The luminescent signal generated is proportional to the ADP concentration produced and is correlated with the kinase activity. CDK1/Cyclin B1 was purchased from Carna (Cat 04-102). […] The assay was initiated with the addition of ATP-containing substrate solution, following a 30-minute pre-incubation of enzyme and inhibitor at room temperature in the reaction mixture. The reaction was stopped after 90 minutes at room temperature by the addition of 10 uL of ADP-GLO Reagent. After a 90 minute incubation, 20 uL of Kinase Detection Reagent was added. Samples were incubated for 40 minutes, after which plate well luminescence was measured on a Envision microplate reader. The IC50 determinations were made from a plot of the fractional velocity as a function of inhibitor concentration fit to the 4 parameters IC50 equation.

CDK2/Cyclin E1 = CDK2/Cyclin E1 (Homo sapiens (Human), UniProt P24941); assay: CDK2/Cyclin E1 Full length ADP-Glo Kinase Assay; format: biochemical; conditions: 20 uM ATP, read-out: CDK2/ CyclinE1 IC50
Experimental: CDK2/Cyclin E1 Full length ADP-Glo Kinase Assay
as §1, with “of CDK2/Cyclin E1” for “of CDK1/Cyclin B1”, “assay. CDK2/Cyclin E1 full length” for “assay. CDK1/Cyclin B1”, “activity. CDK2/Cyclin E1” for “activity. CDK1/Cyclin B1”, “from Eurofins” for “from Carna”, “(Cat 14-475M).” for “(Cat 04-102).”

CDK4/Cyclin D1 = CDK4/Cyclin D1 (Homo sapiens (Human), UniProt P11802); assay: CDK4/Cyclin D1 CHEF Assay (AQT0258 peptide); format: biochemical; conditions: 200 uM ATP, read-out: CDK4/ CyclinD1 AQT IC50
CDK4/Cyclin D1, sequence (P11802 whole entry): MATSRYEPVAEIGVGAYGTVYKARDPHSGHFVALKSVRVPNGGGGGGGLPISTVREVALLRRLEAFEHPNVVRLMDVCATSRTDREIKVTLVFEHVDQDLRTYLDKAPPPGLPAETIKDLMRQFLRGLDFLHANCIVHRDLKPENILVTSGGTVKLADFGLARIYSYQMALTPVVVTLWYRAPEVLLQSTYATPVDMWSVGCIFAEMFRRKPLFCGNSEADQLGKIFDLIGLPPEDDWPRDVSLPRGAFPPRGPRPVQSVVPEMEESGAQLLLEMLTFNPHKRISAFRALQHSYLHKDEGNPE
CDK4/Cyclin D1, sequence (P24385 whole entry partner): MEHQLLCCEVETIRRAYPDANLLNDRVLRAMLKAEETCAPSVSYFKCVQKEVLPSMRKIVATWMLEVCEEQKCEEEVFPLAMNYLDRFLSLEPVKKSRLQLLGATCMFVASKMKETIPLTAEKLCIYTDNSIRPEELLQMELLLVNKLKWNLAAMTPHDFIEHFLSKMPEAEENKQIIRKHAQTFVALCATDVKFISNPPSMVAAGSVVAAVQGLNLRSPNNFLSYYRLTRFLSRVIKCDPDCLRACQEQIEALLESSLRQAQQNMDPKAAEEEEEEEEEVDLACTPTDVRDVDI
Source text: CDK4/Cyclin D1 CHEF Assay
The purpose of CDK4/Cyclin D1 assay is to evaluate the inhibition (% inhibition and IC50 values) of small molecule inhibitors by using a Chelation-Enhance Fluorescence (CHEF) assay. In a CHEF assay, phosphorylation of a peptide substrate results in proportional increase in fluorescence. CHEF kinase assay use peptide substrates containing a synthetic alpha-amino acid with a side chain bearing an 8-hydroxyquinoline derivative (sulfonamido-oxide, Sox). Upon phosphorylation of a nearby serine, threonine or tyrosine and in the presence of Mg(II), the spectral properties of the Sox residue are altered, emitting 485 nm wavelength light when excited with a 360 nm wavelength light source. CDK4/Cyclin D1 catalyzes the phosphoryl transfer to the SOX-labeled substrate peptide AQT0258 from Assayquant Technologies. […] The reaction was initiated with the addition of substrate solution, following a 30-minute pre-incubation of enzyme and inhibitor at 22° C. in the reaction mix. Reactions were allowed to proceed for 3 hrs at 22° C., followed by fluorescence read of the reaction. The IC50 determinations were made from a plot of the fractional velocity as a function of inhibitor concentration fit to the 4 parameters IC50 equation.

CDK6/Cyclin D3 = CDK6/Cyclin D3 (Homo sapiens (Human), UniProt Q00534); assay: CDK6/Cyclin D3 ADP-Glo Kinase Assay; format: biochemical; conditions: 100 uM ATP, read-out: CDK6/ CyclinD3 IC50
CDK6/Cyclin D3, sequence (Q00534 whole entry): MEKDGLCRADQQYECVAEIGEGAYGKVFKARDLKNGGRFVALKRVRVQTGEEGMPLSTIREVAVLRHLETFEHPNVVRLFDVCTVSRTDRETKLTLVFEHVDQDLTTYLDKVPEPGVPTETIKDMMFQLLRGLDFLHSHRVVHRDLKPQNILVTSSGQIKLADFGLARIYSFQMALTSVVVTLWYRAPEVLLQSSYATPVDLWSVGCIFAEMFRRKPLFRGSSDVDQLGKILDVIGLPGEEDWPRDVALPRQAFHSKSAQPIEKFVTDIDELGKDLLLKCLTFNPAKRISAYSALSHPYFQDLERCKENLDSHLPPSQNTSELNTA
CDK6/Cyclin D3, sequence (P30281 whole entry partner): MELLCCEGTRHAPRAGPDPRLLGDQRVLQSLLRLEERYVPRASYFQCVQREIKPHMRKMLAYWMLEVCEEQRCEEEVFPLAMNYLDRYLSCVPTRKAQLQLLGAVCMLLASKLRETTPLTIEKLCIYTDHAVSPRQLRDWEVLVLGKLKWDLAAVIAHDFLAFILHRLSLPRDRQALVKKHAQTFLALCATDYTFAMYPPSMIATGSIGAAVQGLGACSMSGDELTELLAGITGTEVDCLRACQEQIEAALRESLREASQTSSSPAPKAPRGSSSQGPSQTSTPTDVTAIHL
Experimental: CDK6/Cyclin D3 ADP-Glo Kinase Assay
The purpose of the CDK6/Cyclin D3 assay is to evaluate the inhibition (% inhibition and IC50 values) in the presence of small molecule inhibitors by using a Luminescent based ADP-Glo assay. CDK6/Cyclin D3 catalyzes the production of ADP from ATP. ADP-Glo assay monitors ADP producing biochemical reactions. ADP-Glo is performed in 2 steps upon completion of kinase reaction: a combined termination of kinase reaction and depletion of remaining ATP in the first step, and conversion of generated ADP to […] and the newly produced ATP to light output using luciferase/luciferin reaction in the second step. The luminescent signal generated is proportional to the ADP concentration produced and is correlated with the kinase activity CDK6/Cyclin D3 was purchased from Carna. […] The assay was initiated with the addition of ATP-containing substrate solution, following a 30-minute pre-incubation of enzyme and inhibitor at room temperature in the reaction mixture. The reaction was stopped after 90 minutes at room temperature by the addition of 10 uL of ADP-GLO Reagent. After a 90-minute incubation, 20 uL of Kinase Detection Reagent was added. Samples were incubated for 40 minutes, after which plate well luminescence was measured on a Envision microplate reader. The IC50 determinations were made from a plot of the fractional velocity as a function of inhibitor concentration fit to the 4 parameters IC50 equation.

MCF-7 cells = assay: Cell Growth Inhibition, MCF-7 (CellTiterGlo, 6 days); format: cell-based; conditions: Homo sapiens, MCF7, 144 h, MCF-7, 6-day treatment
Source text: (§2) MCF-7 and OVCAR-3 cells were used to evaluate the anti-proliferation activity of the CDK inhibitors. MCF-7 (ATCC, HTB-22) cells are epithelial cells from a patient with ER+ metastatic adenocarcinoma. OVCAR-3 (ATCC, HTB-161) cells were derived from malignant ascites of a patient with ovarian cancer and are known to have CCNE1 amplification. Both cell lines were maintained in RPMI media supplemented with 10% fetal bovine serum. For cell growth inhibition assay, CDK inhibitors in DMSO solution were dispensed with either Echo 655 (Beckman Coulter) or Tecan D300e (HP) into 384-well plates (Corning #3765) and the 384-well plates were UV-sterilized prior to the assay. The inhibitors were typically tested in the 10-10,000 nM concentration range with half-log serial dilutions. MCF-7 or OVCAR-3 (500 cells/30 μL/well) were added to each well using Multidrop Combi (ThermoFisher) using standard cassettes. The assay plates with cells were cultured at 37° C., 5% CO2 for 6 days. At the end of the 6-day treatment, 30 μL of CellTiterGlo 2.0 (Promega) was added to each well and the luminescent signal was read using CLARIOstar plus (BMG). The percentage of cell growth inhibition (% CGI) was calculated using the following formula 00 CGI=100-100×luminescencesampie/luminescencecontroi. The half maximal inhibitory concentration (IC50) was determined by nonlinear curve fitting (four parameters, variable slope).

OVCAR-3 cells = assay: Cell Growth Inhibition, OVCAR-3 (CellTiterGlo, 6 days); format: cell-based; conditions: Homo sapiens, 144 h, OVCAR-3, 6-day treatment
Source text: as §2

CDK1/Cyclin B1, sequence (P06493 whole entry): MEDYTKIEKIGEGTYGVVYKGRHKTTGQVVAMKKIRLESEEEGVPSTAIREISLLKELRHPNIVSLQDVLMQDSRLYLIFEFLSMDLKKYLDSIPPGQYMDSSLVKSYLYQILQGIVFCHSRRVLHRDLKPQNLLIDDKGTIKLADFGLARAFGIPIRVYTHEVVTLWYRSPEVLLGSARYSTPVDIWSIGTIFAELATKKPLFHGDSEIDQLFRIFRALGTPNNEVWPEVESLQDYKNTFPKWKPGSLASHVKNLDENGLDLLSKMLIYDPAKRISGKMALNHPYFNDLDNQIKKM
CDK1/Cyclin B1, sequence (P14635 whole entry partner): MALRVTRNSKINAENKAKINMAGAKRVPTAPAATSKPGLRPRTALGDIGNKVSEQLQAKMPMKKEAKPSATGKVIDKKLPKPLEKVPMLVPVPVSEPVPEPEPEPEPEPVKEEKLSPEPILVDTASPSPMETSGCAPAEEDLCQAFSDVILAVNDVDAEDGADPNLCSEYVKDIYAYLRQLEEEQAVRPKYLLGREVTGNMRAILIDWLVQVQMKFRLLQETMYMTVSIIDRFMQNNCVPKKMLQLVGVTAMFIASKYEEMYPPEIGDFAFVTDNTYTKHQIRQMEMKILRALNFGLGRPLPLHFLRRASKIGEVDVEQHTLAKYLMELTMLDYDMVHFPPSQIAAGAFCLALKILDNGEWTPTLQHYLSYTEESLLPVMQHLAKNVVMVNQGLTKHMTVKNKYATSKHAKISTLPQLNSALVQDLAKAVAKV

| Compound | IC50 (CDK1/Cyclin B1) | IC50 (CDK2/Cyclin E1) | IC50 (CDK4/Cyclin D1) | IC50 (CDK6/Cyclin D3) | IC50 (MCF-7 cells) | IC50 (OVCAR-3 cells) |
| --- | --- | --- | --- | --- | --- | --- |
| [2H]C([2H])([2H])N1CC2(CN(c3nc(C)cc4cnc(NC5CCN(S(=O)(=O)C6CC6)CC5)nc34)CC2(F)F)C1 [Compound 13, N-(1-(cyclopropylsulfonyl)piperidin-4-yl)-8-(8,8-difluoro-2-(methyl-d3)-2,6-diazaspiro[3.4]octan-6-yl)-6-methylpyrido[3,4-d]pyrimidin-2-amine] | < 200 nM | < 200 nM | < 200 nM | < 200 nM |  |  |
| Cc1cc2cnc(NC3CCN(S(C)(=O)=O)CC3)nc2c(N2CC3(C2)CN(C2CC2)C3)n1 [Compound 42, 8-(6-cyclopropyl-2,6-diazaspiro[3.3]heptan-2-yl)-6-methyl-N-(1-(methylsulfonyl)piperidin-4-yl)pyrido[3,4-d]pyrimidin-2-amine] | > 2000 nM |  |  |  | 500 to 2000 nM | 500 to 2000 nM |
| Cc1cc2cnc(NC3CCN(S(=O)(=O)C4CC4)CC3)nc2c(N2CC(C#N)(CCF)C2)n1 [Compound 68, 1-(2-((1-(cyclopropylsulfonyl)piperidin-4-yl)amino)-6-methylpyrido[3,4-d]pyrimidin-8-yl)-3-(2-fluoroethyl)azetidine-3-carbonitrile] | > 2000 nM | < 200 nM | 200 to 500 nM | 500 to 2000 nM |  |  |
| Cc1cc2cnc(NC3CCN(S(C)(=O)=O)CC3)nc2c(N2CC3(CNC(=O)C3)C2)n1 [Compound 81, 2-(6-methyl-2-((1-(methylsulfonyl)piperidin-4-yl)amino)pyrido[3,4-d]pyrimidin-8-yl)-2,6-diazaspiro[3.4]octan-7-one] | 200 to 500 nM | < 200 nM | < 200 nM | 200 to 500 nM |  |  |
| Cc1cc2cnc(NC3CCN(S(C)(=O)=O)CC3)nc2c(N2CC3(CCC(=O)NC3)C2)n1 [Compound 82, 2-(6-methyl-2-((1-(methylsulfonyl)piperidin-4-yl)amino)pyrido[3,4-d]pyrimidin-8-yl)-2,6-diazaspiro[3.5]nonan-7-one] | 200 to 500 nM | < 200 nM | 200 to 500 nM | 200 to 500 nM |  |  |
| Cc1cc2cnc(NC3CCN(S(C)(=O)=O)CC3)nc2c(C2CC3(CNCC3(F)F)C2)n1 (stereo not drawn) [Compound 99, 8-(8,8-difluoro-6-azaspiro[3.4]octan-2-yl)-6-methyl-N-(1-(methylsulfonyl)piperidin-4-yl)pyrido[3,4-d]pyrimidin-2-amine] | < 200 nM | < 200 nM | < 200 nM | < 200 nM |  |  |
| Cc1cc2cnc(NC3CCN(S(C)(=O)=O)CC3)nc2c(N2CC3(CNCC3C(F)F)C2)n1 (stereo not drawn) [Compound 100, 8-(8-(difluoromethyl)-2,6-diazaspiro[3.4]octan-2-yl)-6-methyl-N-(1-(methylsulfonyl)piperidin-4-yl)pyrido[3,4-d]pyrimidin-2-amine] | < 200 nM | < 200 nM | < 200 nM | < 200 nM |  |  |
| Cc1cc2cnc(NC3CCN(S(C)(=O)=O)CC3)nc2c(N2CC3(CN(C)C[C@@H]3F)C2)n1 [Compound 103, (R)-8-(8-fluoro-6-methyl-2,6-diazaspiro[3.4]octan-2-yl)-6-methyl-N-(1-(methylsulfonyl)piperidin-4-yl)pyrido[3,4-d]pyrimidin-2-amine] |  |  | < 200 nM | < 200 nM |  |  |

The next lines start with the values.

| IC50 (CDK1/Cyclin B1) | IC50 (CDK2/Cyclin E1) | IC50 (CDK4/Cyclin D1) | IC50 (CDK6/Cyclin D3) | IC50 (MCF-7 cells) | IC50 (OVCAR-3 cells) | Compound |
| --- | --- | --- | --- | --- | --- | --- |
| < 200 nM |  |  |  | 500 to 2000 nM | 500 to 2000 nM | CS(=O)(=O)N1CCC(Nc2ncc3ccnc(N4C[C@H]5c6ccccc6S(=O)(=O)[C@H]5C4)c3n2)CC1 [Compound 16, (3aR,8bR)-2-(2-((1-(methylsulfonyl)piperidin-4-yl)amino)pyrido[3,4-d]pyrimidin-8-yl)-2,3,3a,8b-tetrahydro-1H-benzo[4,5]thieno[2,3-c]pyrrole 4,4-dioxide] |
| < 200 nM | < 200 nM | < 200 nM | < 200 nM |  |  | Cc1cc2cnc(NC3CCN(S(C)(=O)=O)CC3)nc2c(C2CC(C)(CO)C2)n1 (stereo not drawn) [Compound 69, (1-methyl-3-(6-methyl-2-((1-(methylsulfonyl)piperidin-4-yl)amino)pyrido[3,4-d]pyrimidin-8-yl)cyclobutyl)methanol] |
| 200 to 500 nM | < 200 nM | < 200 nM | 200 to 500 nM |  |  | Cc1cc2cnc(NC3CCN(S(C)(=O)=O)CC3)nc2c(N2CC3(CNCC3F)C2)n1 (stereo not drawn) [Compound 98, 8-(8-fluoro-2,6-diazaspiro[3.4]octan-2-yl)-6-methyl-N-(1-(methylsulfonyl)piperidin-4-yl)pyrido[3,4-d]pyrimidin-2-amine] |
|  |  | < 200 nM | 200 to 500 nM |  |  | Cc1cc2cnc(NC3CCN(S(C)(=O)=O)CC3)nc2c(N2CC3(CN(C)C[C@H]3F)C2)n1 [Compound 104, (S)-8-(8-fluoro-6-methyl-2,6-diazaspiro[3.4]octan-2-yl)-6-methyl-N-(1-(methylsulfonyl)piperidin-4-yl)pyrido[3,4-d]pyrimidin-2-amine] |
